Laboratory results from paper PMC4501059, “Responding to the challenge of untreatable gonorrhea: ETX0914, a first-in-class agent with a distinct mechanism-of-action against bacterial Type II topoisomerases” (Scientific Reports, 2015).
≈ marks a conversion by molar mass, not a printed value. Where two headings read alike, the source gives them in different places.

Experiments:
[1] = tested on: Staphylococcus aureus; details: cited from earlier work
[2] = tested on: Neisseria gonorrhoeae; details: cited from earlier work
[3] = tested on: mouse lymphoma cells; test: in vitro mouse micronucleus aberration assay (MMA); assay type: cell-based
Protocol: (§1) In vitro toxicology. Experiments for assessing micronuclei in mouse lymphoma cells^19 myeloid cytotoxicity^20 and erythroid cytotoxicity^21 were performed as described previously.

[4] = biological target: Kv1.5 (Homo sapiens, UniProt P22460); test: In vitro ion channel function; assay type: cell-based; details: Ikr/Kv1.5 IC50, Rapidly activating K^+ delayed rectifier
Description: (§2) Supplement srep11827-s1.doc, table 3 | column: Table S2: In vitro ion channel function IC50 (µM)

[5] = biological target: Iks/Kv7.1 (Homo sapiens, UniProt P51787); test: In vitro ion channel function; assay type: cell-based; details: Iks/Kv7.1 IC50, Slowly activating K^+ delayed rectifier
Description: as §2

[6] = biological target: T1, Ito/Kv4.3 (Homo sapiens, UniProt Q9UK17); test: In vitro ion channel function; assay type: cell-based; details: Ito/Kv4.3 IC50, Transient outward K^+ early repolarization
T1 sequence (Q9UK17 1-655): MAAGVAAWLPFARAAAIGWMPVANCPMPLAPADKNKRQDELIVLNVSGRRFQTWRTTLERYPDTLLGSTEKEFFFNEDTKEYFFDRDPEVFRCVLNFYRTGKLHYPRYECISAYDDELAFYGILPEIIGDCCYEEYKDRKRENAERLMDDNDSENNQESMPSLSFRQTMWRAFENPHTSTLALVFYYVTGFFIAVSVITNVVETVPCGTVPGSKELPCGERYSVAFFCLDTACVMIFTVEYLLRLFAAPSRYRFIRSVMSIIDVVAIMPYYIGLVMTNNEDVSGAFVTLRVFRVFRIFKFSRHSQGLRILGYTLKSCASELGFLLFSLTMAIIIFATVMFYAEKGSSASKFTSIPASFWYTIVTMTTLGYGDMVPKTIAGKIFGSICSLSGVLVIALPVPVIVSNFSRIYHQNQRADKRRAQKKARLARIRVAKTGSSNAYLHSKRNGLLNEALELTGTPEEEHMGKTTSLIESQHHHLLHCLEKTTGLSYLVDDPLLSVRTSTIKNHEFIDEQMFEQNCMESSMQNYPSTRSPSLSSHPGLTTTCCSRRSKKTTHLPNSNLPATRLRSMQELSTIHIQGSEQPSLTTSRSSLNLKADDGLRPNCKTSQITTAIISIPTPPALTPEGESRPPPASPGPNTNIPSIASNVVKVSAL
Description: as §2

[7] = biological target: hNav1.5 (Homo sapiens, UniProt Q14524); test: In vitro ion channel function; assay type: cell-based; details: hNav1.5 IC50, Initiation of cardiac action potential/QRS interval
Description: as §2

[8] = biological target: hCav1.2 (Homo sapiens, UniProt Q13936); test: In vitro ion channel function; assay type: cell-based; details: hCav1.2 IC50, Ca^2+ entry into excitable cells
Description: as §2

[9] = biological target: hERG (Homo sapiens, UniProt Q12809); test: In vitro ion channel function; details: hERG IC50, K^+ rectifying current/QT interval
[10] = tested on: S. pneumoniae ARC2205 (ERQR); test: MIC (CLSI broth microdilution); assay type: cell-based
[11] = tested on: S. pneumoniae ATCC49619; test: MIC (CLSI broth microdilution); assay type: cell-based
[12] = tested on: S. aureus ARC516; test: MIC (CLSI broth microdilution); assay type: cell-based
[13] = tested on: N. gonorrhoeae ATCC49226; test: MIC (CLSI agar dilution); assay type: cell-based
[14] = physchem
[15] = Dog pharmacokinetics; assay type: in vivo, Beagle dog; details: beagle, dog, plasma
Protocol: AZD0914 was analyzed in mouse, rat, dog, monkey plasma using a qualified method which was later validated for human plasma analysis. The validated human method is described below and is representative of the approach taken in other species. AZD0914 was determined in human plasma prepared with K2EDTA as an anticoagulant. AZD0914 and an internal standard (^13C2, ^15N2 AZD0914) were extracted from plasma with tert- butyl methyl ether. After evaporating to dryness under a stream of nitrogen, the residue was reconstituted and quantitated by reverse phase HPLC-MS/MS against a standard curve from 1.00 to 5000 ng/ml. Separation was achieved using a gradient which went from 55% to 85% methanol:acetonitrile (1:1) containing 0.2% formic acid as mobile phase B and 0.2% formic acid in water as mobile phase A at a flow rate of 0.60 ml/min through a Phenomonex Gemini C18 column (50 x 2.0 mm column, […]) heated using a Shimadzu CTO-20AC set to 40 °C. AZD0914 was detected in multiple reaction monitoring (MRM) mode by positive ion electrospray ionization using a Sciex API5500 (Toronto, Canada) mass spectrometer. The ion spray voltage was set to 5500 V and turboionspray temperature was 650 °C. AZD0914 was quantitated using the MRM transition 488.2 → 348.2 using a collision energy of 29 eV. The internal standard, (^13C2, ^15N2 AZD0914), was monitored using identical conditions except for the MRM transition of 492.2 → 348.2.

[16] = tested on: N. gonorrhoeae ARC4676 (QR); assay type: cell-based
[17] = Human plasma protein binding (PPB); details: plasma
[18] = tested on: S. aureus AP607004 (MRQR); test: MIC (CLSI broth microdilution); assay type: cell-based
[19] = comparative haematology analysis in the rat, oral dosing; details: for AUC: in vivo, po
[20] = tested on: mammalian myeloid cell lines; test: myeloid cytotoxicity (growth inhibition); assay type: cell-based; details: read-out: Myeloid IC50
Protocol: as §1

[21] = tested on: mammalian erythroid cell lines; test: erythroid cytotoxicity (growth inhibition); assay type: cell-based; details: read-out: Erythroid IC50
Protocol: as §1

[22] = tested on: resistant isolates of S. aureus, S. pneumoniae and N. gonorrhoeae; assay type: cell-based; details: for susceptibility of spontaneous ETX0914 resistant mutants: S. aureus and N. gonorrhoeae GyrB mutants
[23] = Table 2, first entry of the cell (ciprofloxacin: 250 mg UID line)

Sequence of hNav1.5 (Q14524 whole entry): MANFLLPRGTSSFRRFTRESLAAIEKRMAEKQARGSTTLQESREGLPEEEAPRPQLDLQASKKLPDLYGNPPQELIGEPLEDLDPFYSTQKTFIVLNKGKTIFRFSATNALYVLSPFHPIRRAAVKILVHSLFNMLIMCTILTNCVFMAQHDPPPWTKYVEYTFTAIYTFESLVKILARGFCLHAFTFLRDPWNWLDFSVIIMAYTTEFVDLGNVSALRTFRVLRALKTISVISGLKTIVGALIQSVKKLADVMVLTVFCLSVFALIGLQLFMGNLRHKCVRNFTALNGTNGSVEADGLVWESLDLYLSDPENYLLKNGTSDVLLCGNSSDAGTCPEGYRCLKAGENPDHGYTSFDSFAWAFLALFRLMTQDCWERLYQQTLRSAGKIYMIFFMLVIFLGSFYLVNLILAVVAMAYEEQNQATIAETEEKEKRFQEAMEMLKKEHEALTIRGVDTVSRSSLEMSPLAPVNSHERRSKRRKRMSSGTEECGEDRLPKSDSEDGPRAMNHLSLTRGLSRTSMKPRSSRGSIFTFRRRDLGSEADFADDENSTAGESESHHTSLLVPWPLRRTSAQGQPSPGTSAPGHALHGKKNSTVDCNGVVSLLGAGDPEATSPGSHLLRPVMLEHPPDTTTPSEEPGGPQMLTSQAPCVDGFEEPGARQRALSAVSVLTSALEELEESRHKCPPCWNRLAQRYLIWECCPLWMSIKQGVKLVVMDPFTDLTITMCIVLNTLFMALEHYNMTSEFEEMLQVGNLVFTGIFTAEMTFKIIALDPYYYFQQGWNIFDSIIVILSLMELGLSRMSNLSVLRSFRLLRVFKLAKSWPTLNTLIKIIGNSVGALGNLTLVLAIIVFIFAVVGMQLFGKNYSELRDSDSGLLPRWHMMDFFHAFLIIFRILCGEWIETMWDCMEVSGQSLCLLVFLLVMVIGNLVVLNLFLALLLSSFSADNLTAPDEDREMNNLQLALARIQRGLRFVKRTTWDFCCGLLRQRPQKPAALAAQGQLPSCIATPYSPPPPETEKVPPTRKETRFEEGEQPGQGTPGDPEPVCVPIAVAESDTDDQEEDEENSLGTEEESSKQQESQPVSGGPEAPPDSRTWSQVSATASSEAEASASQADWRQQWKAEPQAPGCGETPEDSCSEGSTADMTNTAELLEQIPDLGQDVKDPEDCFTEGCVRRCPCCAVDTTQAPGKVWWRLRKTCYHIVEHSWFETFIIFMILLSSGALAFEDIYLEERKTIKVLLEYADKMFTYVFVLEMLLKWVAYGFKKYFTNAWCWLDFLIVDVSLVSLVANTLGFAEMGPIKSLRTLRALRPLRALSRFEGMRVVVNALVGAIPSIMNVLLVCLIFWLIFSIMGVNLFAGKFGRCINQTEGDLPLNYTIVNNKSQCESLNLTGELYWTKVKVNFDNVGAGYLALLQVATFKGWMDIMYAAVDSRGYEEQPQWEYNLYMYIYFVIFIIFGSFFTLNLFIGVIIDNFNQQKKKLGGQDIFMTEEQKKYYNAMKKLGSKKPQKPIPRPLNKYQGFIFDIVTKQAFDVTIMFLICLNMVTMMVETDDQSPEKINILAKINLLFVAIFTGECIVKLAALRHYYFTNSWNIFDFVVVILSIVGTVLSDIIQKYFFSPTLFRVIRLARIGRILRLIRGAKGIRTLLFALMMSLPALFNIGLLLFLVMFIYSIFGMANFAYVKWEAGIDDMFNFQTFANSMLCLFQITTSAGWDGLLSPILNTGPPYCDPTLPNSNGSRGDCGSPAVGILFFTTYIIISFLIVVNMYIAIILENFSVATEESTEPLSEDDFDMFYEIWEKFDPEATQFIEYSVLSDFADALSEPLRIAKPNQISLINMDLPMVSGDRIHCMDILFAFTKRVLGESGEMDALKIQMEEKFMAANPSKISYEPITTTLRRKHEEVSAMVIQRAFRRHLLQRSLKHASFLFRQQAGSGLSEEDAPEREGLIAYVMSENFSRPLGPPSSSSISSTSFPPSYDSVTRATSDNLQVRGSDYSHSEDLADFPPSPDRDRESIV
Sequence of hERG (Q12809 whole entry): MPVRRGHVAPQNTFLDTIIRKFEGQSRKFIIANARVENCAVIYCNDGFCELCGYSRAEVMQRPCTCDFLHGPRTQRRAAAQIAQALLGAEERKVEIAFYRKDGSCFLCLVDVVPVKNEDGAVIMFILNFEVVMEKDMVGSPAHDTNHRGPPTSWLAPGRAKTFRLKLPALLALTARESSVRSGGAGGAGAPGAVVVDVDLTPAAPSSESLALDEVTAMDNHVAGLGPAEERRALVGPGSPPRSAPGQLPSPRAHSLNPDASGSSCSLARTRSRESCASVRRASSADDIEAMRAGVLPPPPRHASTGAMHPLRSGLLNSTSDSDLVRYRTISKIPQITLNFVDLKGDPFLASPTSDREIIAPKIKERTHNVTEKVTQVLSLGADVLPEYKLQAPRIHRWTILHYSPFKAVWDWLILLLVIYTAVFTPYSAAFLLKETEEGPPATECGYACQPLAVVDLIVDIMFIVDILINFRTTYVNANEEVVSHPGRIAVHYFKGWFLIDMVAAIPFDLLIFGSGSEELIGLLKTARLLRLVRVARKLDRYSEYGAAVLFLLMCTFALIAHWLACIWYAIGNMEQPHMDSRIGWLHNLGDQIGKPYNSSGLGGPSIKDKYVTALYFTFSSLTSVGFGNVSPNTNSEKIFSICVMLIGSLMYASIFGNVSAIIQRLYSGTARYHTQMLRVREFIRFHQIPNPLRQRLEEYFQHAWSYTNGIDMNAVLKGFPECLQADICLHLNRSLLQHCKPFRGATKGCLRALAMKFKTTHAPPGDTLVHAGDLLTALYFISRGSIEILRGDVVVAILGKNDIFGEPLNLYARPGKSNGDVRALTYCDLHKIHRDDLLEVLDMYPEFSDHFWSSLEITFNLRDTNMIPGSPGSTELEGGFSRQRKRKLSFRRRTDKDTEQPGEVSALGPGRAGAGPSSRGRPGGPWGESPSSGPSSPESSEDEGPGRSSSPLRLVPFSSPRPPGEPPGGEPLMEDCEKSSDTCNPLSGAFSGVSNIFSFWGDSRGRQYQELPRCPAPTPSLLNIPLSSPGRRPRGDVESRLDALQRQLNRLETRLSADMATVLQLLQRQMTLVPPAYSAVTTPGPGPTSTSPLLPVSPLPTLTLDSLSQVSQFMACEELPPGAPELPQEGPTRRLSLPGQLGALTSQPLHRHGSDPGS
Sequence of Iks/Kv7.1 (P51787 whole entry): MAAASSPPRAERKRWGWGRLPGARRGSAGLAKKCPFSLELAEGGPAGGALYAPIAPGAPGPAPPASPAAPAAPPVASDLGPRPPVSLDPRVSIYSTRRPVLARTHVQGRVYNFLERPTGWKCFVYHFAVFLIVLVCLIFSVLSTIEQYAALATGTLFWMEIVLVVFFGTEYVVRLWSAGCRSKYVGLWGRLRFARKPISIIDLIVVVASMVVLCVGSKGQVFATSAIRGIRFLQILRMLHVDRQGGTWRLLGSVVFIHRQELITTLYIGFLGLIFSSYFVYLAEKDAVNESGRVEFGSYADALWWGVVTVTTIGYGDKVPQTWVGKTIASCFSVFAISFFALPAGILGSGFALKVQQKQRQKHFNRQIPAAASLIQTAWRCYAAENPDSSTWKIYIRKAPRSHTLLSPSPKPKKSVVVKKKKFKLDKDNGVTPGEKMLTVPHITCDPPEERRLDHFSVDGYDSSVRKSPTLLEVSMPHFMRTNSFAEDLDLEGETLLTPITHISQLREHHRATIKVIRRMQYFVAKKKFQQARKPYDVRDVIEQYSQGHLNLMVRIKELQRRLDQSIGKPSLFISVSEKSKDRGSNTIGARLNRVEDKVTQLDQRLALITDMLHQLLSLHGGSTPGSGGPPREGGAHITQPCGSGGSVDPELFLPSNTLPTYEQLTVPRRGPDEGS
Sequence of Kv1.5 (P22460 whole entry): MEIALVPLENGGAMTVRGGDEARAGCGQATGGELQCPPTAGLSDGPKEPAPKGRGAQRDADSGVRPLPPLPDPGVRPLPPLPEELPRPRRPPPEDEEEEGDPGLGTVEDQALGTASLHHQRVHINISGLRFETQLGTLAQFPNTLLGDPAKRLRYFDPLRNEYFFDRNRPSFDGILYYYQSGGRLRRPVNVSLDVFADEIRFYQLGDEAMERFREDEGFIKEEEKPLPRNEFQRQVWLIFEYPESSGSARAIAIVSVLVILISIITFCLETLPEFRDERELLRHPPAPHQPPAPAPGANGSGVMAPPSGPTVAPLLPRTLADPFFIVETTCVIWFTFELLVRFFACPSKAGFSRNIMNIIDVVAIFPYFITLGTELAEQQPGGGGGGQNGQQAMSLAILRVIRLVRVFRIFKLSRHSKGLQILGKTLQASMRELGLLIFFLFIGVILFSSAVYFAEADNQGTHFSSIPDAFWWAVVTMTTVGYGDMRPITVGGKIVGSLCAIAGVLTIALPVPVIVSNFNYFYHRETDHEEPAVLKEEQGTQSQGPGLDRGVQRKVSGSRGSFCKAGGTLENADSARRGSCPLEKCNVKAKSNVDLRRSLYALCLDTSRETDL

Structure (SMILES)	IC50 [5]	IC50 [6]	IC50 [7]	IC50 [8]	IC50 [9]	MIC: S. pneumoniae ARC2205 (ERQR) [10]	MIC: S. pneumoniae ATCC49619 [11]	MIC: S. aureus ARC516 [12]	MIC: N. gonorrhoeae ATCC49226 [13]	solubility [14]	Dog F [15]	clearance [15]	MIC: N. gonorrhoeae ARC4676 (QR) [16]	fraction unbound [17]	MIC: S. aureus AP607004 (MRQR) [18]	Micronucleus NOEL ([3]; in vitro)	IC50 [20]	IC50 [21]	other results
CO/N=C(\C(=O)N[C@@H]1C(=O)N2C(C(=O)O)=C(CSc3nc(=O)c(=O)[nH]n3C)CS[C@H]12)c1csc(N)n1 [Ceftriaxone, reference compound]	–	–	–	–	–	–	–	–	–	–	–	–	–	–	–	–	–	–	MIC90 for S. aureus [1]: 8 mg/L
O=C(O)c1cn(C2CC2)c2cc(N3CCNCC3)c(F)cc2c1=O [Ciprofloxacin 2, Ciprofloxacin, reference compound]	–	–	–	–	–	–	–	–	–	–	–	–	–	–	–	–	–	–	MIC90, gonococcal infection (N. gonorrhoeae) [2, 23]: 0.06 to 0.12 mg/L; MIC90, gonococcal infection (N. gonorrhoeae) ([2]; second entry of the cell, 500 mg UID line): 0.25 to 0.5 mg/L; Micronucleus NOEL ([3]; mouse): 200 µM
C[C@@H]1CN2c3c(cc4c(N5C(=O)OC[C@@H]5C)noc4c3F)CC3(C(=O)NC(=O)NC3=O)[C@H]2[C@H](C)O1 [Compound 1]	> 316 µM	> 292 µM	> 316 µM	> 100 µM	232 µM	–	–	–	–	–	–	–	–	–	–	–	–	–	IC50 [4]: > 100 µM
Cc1noc2c(F)c3c(cc12)CC1(C(=O)NC(=O)NC1=O)[C@H]1[C@H](C)O[C@H](C)CN31 [Compound 5, (2R,4S,4aS)-11-Fluoro-2,4,8-trimethyl-2,4,4a,6-tetrahydro-1H,1'H-spiro[isoxazolo[4,5-g][1,4]oxazino[4,3-a]quinoline-5,5'-pyrimidine]-2',4',6'(3'H)-trione]	> 100 µM	> 100 µM	> 80 µM	> 100 µM	> 100 µM	2.0 mg/L (≈ 4.97 µM)	1.0 mg/L (≈ 2.49 µM)	0.25 mg/L (≈ 0.621 µM)	0.5 mg/L (≈ 1.24 µM)	210 µM (≈ 84.5 µg/mL)	47%	0.318 L/h/kg	0.5 mg/L (≈ 1.24 µM)	0.094	0.5 mg/L (≈ 1.24 µM)	50 µM	–	–	IC50 [4]: > 100 µM; concentration giving a measurable genotoxicity signal in the in vitro MMA ([3]; mouse): 100 µM
C[C@@H]1CN2c3c(cc4c(-n5cncn5)noc4c3F)CC3(C(=O)NC(=O)NC3=O)[C@H]2[C@H](C)O1 [Compound 6]	> 333 µM	224 µM	> 333 µM	> 100 µM	237 µM	0.125 mg/L (≈ 0.274 µM)	0.125 mg/L (≈ 0.274 µM)	0.031 mg/L (≈ 0.0681 µM)	0.25 mg/L (≈ 0.549 µM)	73 µM (≈ 33.2 µg/mL)	99%	0.27 L/h/kg	0.125 mg/L (≈ 0.274 µM)	0.13	0.063 mg/L (≈ 0.138 µM)	3 µM	–	–	haematologic effects ([19]; 100 mg/kg/day for 14 days in the rat): decreases in reticulocytes, neutrophils, lymphocytes and monocytes; AUC ([19]; rat, 100 mg/kg): 950 µM·h; AUC ([19]; rat, 250 mg/kg): 1700 µM·h; reticulocytes count ([19]; rat, 6 at the higher dose (250 mg/kg, 5 d), linezolid 6 d): significant suppression; neutrophil count ([19]; rat, both doses of 6, linezolid): showing suppression; lymphocyte counts ([19]; rat, higher dose of 6): leading to suppression; white blood cell count ([19]; rat, higher dose of 6): leading to suppression
C[C@@H]1CN2c3c(cc4c(C(=O)NCC(F)(F)F)noc4c3F)CC3(C(=O)NC(=O)NC3=O)[C@H]2[C@H](C)O1 [Compound 7]	> 100 µM	> 90 µM	> 100 µM	> 100 µM	91 µM	0.125 mg/L (≈ 0.243 µM)	0.125 mg/L (≈ 0.243 µM)	0.125 mg/L (≈ 0.243 µM)	0.25 mg/L (≈ 0.487 µM)	77 µM (≈ 39.5 µg/mL)	74%	0.348 L/h/kg	0.25 mg/L (≈ 0.487 µM)	0.13	0.25 mg/L (≈ 0.487 µM)	100 µM	43 µM	95 µM	IC50 [4]: > 100 µM
Cc1nnc(-c2noc3c(F)c4c(cc23)CC2(C(=O)NC(=O)NC2=O)[C@H]2[C@H](C)O[C@H](C)CN42)o1 [Compound 8]	–	–	–	–	–	0.25 mg/L (≈ 0.531 µM)	0.125 mg/L (≈ 0.266 µM)	0.25 mg/L (≈ 0.531 µM)	1 mg/L (≈ 2.13 µM)	1350 µM (≈ 635 µg/mL)	32%	0.282 L/h/kg	1 mg/L (≈ 2.13 µM)	0.13	0.25 mg/L (≈ 0.531 µM)	> 200 µM	76 µM	> 100 µM	–
CO/N=C1\CN(c2nc3c(cc2F)c(=O)c(C(=O)O)cn3C2CC2)CC1CN (stereo not drawn) [Gemifloxacin, reference compound]	–	–	–	–	–	–	–	–	–	–	–	–	–	–	–	3 µM	10 µM	7 µM	concentration giving a measurable genotoxicity signal in the in vitro MMA [3]: 6 µM
C[C@H]1COc2c(N3CCN(C)CC3)c(F)cc3c(=O)c(C(=O)O)cn1c23 [Levofloxacin, reference compound]	–	–	–	–	–	16 mg/L (≈ 44.3 µM)	0.5 mg/L (≈ 1.38 µM)	0.25 mg/L (≈ 0.692 µM)	–	–	–	–	–	–	8 mg/L (≈ 22.1 µM)	–	79 µM	88 µM	–
N#Cc1ccc2ccc(=O)n(CCN3CC[C@H](NCc4cc5c(cn4)OCCO5)[C@H](F)C3)c2c1 [NBTI 3, 1-[2-[(3R,4S)-4-(2,3-Dihydro-[1,4]dioxino[2,3-c]pyridin-7-ylmethylamino)-3-fluoro-1-piperidyl]ethyl]-2-oxo-quinoline-7-carbonitrile]	–	–	–	–	–	–	–	–	–	–	–	–	–	–	–	–	–	–	susceptibility of fluoroquinolone resistant isolate ARC4680 ([22]; N. gonorrhoeae ARC4680): reduced susceptibility; susceptibility of spontaneous ETX0914 resistant mutants [22]: fully susceptible
CO[C@@H]1[C@@H](OC(N)=O)[C@@H](O)[C@H](Oc2ccc3c(O)c(NC(=O)c4ccc(O)c(CC=C(C)C)c4)c(=O)oc3c2C)OC1(C)C [Novobiocin 4, Novobiocin]	–	–	–	–	–	–	–	–	–	–	–	–	–	–	–	–	–	–	susceptibility of fluoroquinolone resistant clinical isolates ([22]; S. aureus ARC2381, S. pneumoniae ARC2480, N. gonorrhoeae ARC4672, ARC4680, ARC4676): fully susceptible; susceptibility of spontaneous ETX0914 resistant mutants [22]: fully susceptible
CC1COc2c(N3CCN(C)CC3)c(F)cc3c(=O)c(C(=O)O)cn1c23 (stereo not drawn) [Ofloxacin, reference compound]	–	–	–	–	–	–	–	–	–	–	–	–	–	–	–	–	–	–	MIC90, gonococcal infection (N. gonorrhoeae) [2, 23]: 0.25 to 0.5 mg/L; MIC90, skin infection (S. aureus) ([1]; Table 2): 2 mg/L (≈ 5.53 µM)
